Source: patent US8889075B2, “Apparatus for producing water having redox activity” (Kitakyushu Foundation for the Advancement of Industry, …, priority 2007, dated 2014)

Tested on: active oxygen responsive calcium channel (TPC1 channel) of tobacco BY-2 cells
Test: aequorin luminescence of tobacco BY-2 culture cells after adding reaction water (evaluation of redox activity)
Format: cell-based
Conditions: for suppression of the aequorin luminescence reaction induced by water containing active oxygen species: agent added to the reaction, FIG. 11
Text: In a living organism, Ca^2+ is a signal-transmitting substance which becomes a key in an information transmission path which controls metabolism and gene expression. Usually, a concentration of cytoplasm free calcium ion (hereinafter abbreviated as [Ca^2+]cyt) in live cell is maintained at low concentration and with a difference of 10^6 to 10^7 times compared to extracellular cytoplasm free calcium ion. On a cell membranes of living organisms including plants, calcium channels which constitute calcium inflow paths which are activated and open in response to a specific stimulus exist. The presence of most of calcium channels is elucidated at a gene level or at a protein level. […] As a method of nondestructively measuring the behavior of Ca^2+ in the cell, particularly, a change of [Ca^2+]cyt, a method of monitoring the change of [Ca^2+]cyt in response to various stimulations using cells to which gene of aequorin which is Ca^2+ responsive photoprotein derived from Aequorea Victoria is established. Due to this method, it is possible to monitor the change of [Ca^2+]cyt real time by observing bioluminescence. Accordingly, it is possible to determine whether or not water is turned into water having redox reaction in which the redox action is actually generated and the intracellular response is brought about. […] By evaluating effect of addition of aluminum as an ion channel blocker and effects of an active oxygen removing agent, it is possible to determine whether or not a specific active oxygen responsive calcium channel is stimulated (Kawano, T., Kadono, T., Fumoto, […]., Kuse, M. Isobe, M. Furuichi, T. and Muto, S. (2004) Aluminum as a specific inhibitor of plant TPC1 Ca^2+ channels. Biochemical and Biophysical Research Communications 324 (1): 40-45). Accordingly, by using the experimental system, it is possible to evaluate whether or not active oxygen species are present at a level where active oxygen species can stimulate calcium information transmission which is a key of various physiological action including the cell death or the gene expression in the plant cell. […] 100 ml of water having redox activity is added to 500 ml of suspension of cells in which aequorin is expressed (1:5 mixture, 600 ml in total), and CLA chemiluminescence and aequorin luminescence are measured. The luminescence intensity is marked as relative luminescence intensity (rlu). […]

[Al+3] [Al^3+]
suppression of the aequorin luminescence reaction induced by water containing active oxygen species: suppressed

[La+3] [La^3+]
suppression of the aequorin luminescence reaction induced by water containing active oxygen species: suppressed

O=S(=O)(O)c1cc(O)c(O)c(S(=O)(=O)O)c1 [Tiron]
suppression of the aequorin luminescence reaction induced by water containing active oxygen species: suppressed

[O]O [superoxide anion radicals]
concentration of superoxide anion radicals needed for water to have redox activity (intracellular response) (comparison of dissolved oxygen 8 mg/L and 30 mg/L samples, UV plus ultrasonic vibrations, FIG. 12): at least 5 mM
